# Reference: the supplement of paper PMC3974653
# Structures can show the parent of a compound that is named as a salt.
# Test system: MTT (mouse pheochromocytoma)
# Experiment: IC50 of cell viability (ATP content)
# Conditions: (24 or 48 h)
# Summary of the method: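 MTT mouse pheochromocytoma cells (5 µl of 200,000 cells/ml per well, white 1536-well plates, DMEM with 5% FBS and 1% horse serum) were cultured overnight at 37°C, 5% CO2. They then received 23 nl library compound in DMSO by pintool at 8 concentrations (final 0.5 nM to 46 µM) for 24 or 48 hrs. CellTiter-Glo ATP luminescence was read after 15 minutes. Signals were normalised to positive-control (100% inhibition) and DMSO (0%) wells, and IC50 came from a four-parameter logistic fit.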
row,IC50 of cell viability,SMILES
1,> 46 µM,Cl.Cn1ccc2cc3c(cc21)CCN3C(=O)Nc1cccnc1
2,> 46 µM,[H][C@]1(CCCN(CC\C=C(\C2=C(C)C=CS2)C3=C(C)C=CS3)C1)C(O)=O [Tiagabine hydrochloride]
3,> 46 µM,CO[C@H]1C[C@@H]2CC[C@@H](C)[C@@](O)(O2)C(=O)C(=O)N2CCCC[C@H]2C(=O)O[C@H]([C@H](C)C[C@@H]2CC[C@@H](OCCO)[C@H](OC)C2)CC(=O)[C@H](C)C=C(C)[C@@H](O)[C@@H](OC)C(=O)[C@H](C)C[C@H](C)/C=C/C=C/C=C1C [EVEROLIMUS]
4,> 46 µM,COc1cc(/C=C2\CCC/C(=C\c3ccc(O)c(OC)c3)C2=O)ccc1O [Ciclovalona]
5,> 46 µM,CC12C=CC(=O)C=C1CCC1C2C(O)CC2(C)C1CCC2(O)C(=O)COC(=O)CCC(=O)O (centres undefined) [Prednisolone 21-hemisuccinate]
6,> 46 µM,C=NC(C(=O)NC1C(=O)N2C1SC(C)(C)C2C(=O)[O-])c1ccccc1.[Na+] (centres undefined) [METAMPICILLIN SODIUM]
7,> 46 µM,O=C(O)CCc1nc2ccccc2[nH]1 [PROCODAZOLUM]
8,> 46 µM,CCOC(=O)c1ccc(OCCN2C[C@H](O)[C@@H](O)[C@H](O)[C@H]2CO)cc1 [EMIGLITATE]
9,> 46 µM,O=C(C1CCCCC1)N1CC(=O)N2CCc3ccccc3[C@@H]2C1 [Praziquantel]
10,> 46 µM,CC(=O)SCC(CC(=O)c1ccc(C)cc1)C(=O)O (centres undefined) [ESONARIMOD]
11,> 46 µM,CCOC(=O)C/1=C(COCCN)/N\C(=C(C1C2=C(Cl)C=CC=C2)\C(=O)OC)C (centres undefined) [Amlodipine besylate]
12,> 46 µM,CC(C)OC(=O)c1cc2c(OCC(O)CNC(C)(C)C)cccc2[nH]1 (centres undefined)
13,> 46 µM,CCN(CC)CCOc1ccccc1C(=O)CCc1ccccc1 [ETAFENONE HYDROCHLORIDE]
14,> 46 µM,COC(=O)N/N=C/c1c[n+]([O-])c2ccccc2[n+]1[O-] [CARBADOX]
15,> 46 µM,NC1CCN(c2nc3c(cc2F)c(=O)c(C(=O)O)cn3-c2ccc(F)cc2F)C1 (centres undefined) [TOSUFLOXACIN TOSILATE]
16,> 46 µM,CO/N=C(\C(=O)N[C@@H]1C(=O)N2C(C(=O)[O-])=C(C[n+]3cccc4c3CCCC4)CS[C@H]12)c1csc(N)n1 [CEFQUINOME sulfate]
17,> 46 µM,Cc1ccc(S(=O)(=O)NC(=O)NC2CCCC2)cc1 [TOLPENTAMIDUM]
18,> 46 µM,O=C(O)Cc1cn(-c2ccccc2)nc1-c1ccc(Cl)cc1 [Lonazolac]
19,> 46 µM,CCC[C@@H]1O[C@@H]2C[C@@H]3[C@@H]4CC\C5=C\C(=O)\C=C/[C@@]5(C)[C@H]4[C@H](O)C[C@@]3(C)[C@]2(O1)C(=O)CO [Budesonide]
20,> 46 µM,O=C(c1cc2ccccc2o1)N1CCN(Cc2ccccc2)CC1 [Befuralina]
21,> 46 µM,CCC(=O)O.CCC(=O)O.O=C(Nc1cccc(C2=NCCN2)c1)Nc1cccc(C2=NCCN2)c1 [Imidocarbe]
22,> 46 µM,CCN(CC)CCOC(=O)C(c1ccccc1)c1ccccc1.Cl [ADIPHENINE HYDROCHLORIDE]
23,> 46 µM,Cc1nc(Nc2ncc(C(=O)Nc3c(C)cccc3Cl)s2)cc(N2CCN(CCO)CC2)n1 [DASATINIB]
24,> 46 µM,N[C@@H](Cc1cc(I)c(Oc2ccc(O)c(I)c2)c(I)c1)C(=O)O [Detrothyronin]
25,> 46 µM,CC(=O)OCC(=O)NCCCOc1cccc(CN2CCCCC2)c1 [ROXATIDINE ACETATE HYDROCHLORIDE]
26,> 46 µM,CCOC(=O)C(CCc1ccccc1)NC(C)C(=O)N1C(C(=O)O)CC2CCCCC21 (centres undefined) [TRANDOLAPRIL]
27,> 46 µM,c1ccc2c(c1)Sc1ccccc1N2CCN1CCCC1 [PARATHIAZINUM]
28,> 46 µM,"CN(C)C(=O)CNC(=O)Cc1ccccc1 [Acetamide, N,N-dimethyl-2-(2-phenylacetamido)-]"
29,> 46 µM,O=C(NCC1CCCCN1)c1cc(OCC(F)(F)F)ccc1OCC(F)(F)F (centres undefined) [FLECAINIDE]

# The remaining lines, values behind:
row,SMILES,IC50 of cell viability
1,COc1ccc(/C=N/NC(=O)c2ccncc2)cc1OC [Verazide],> 46 µM
2,NCCNc1cccc2ccccc12.[Cl-].[Cl-].[H+].[H+] [N-(1-Naphthyl)ethylenediamine 2HCl],> 46 µM
3,CCC(=O)O[C@H]1C(O[C@@H]2C(C)[C@H](O[C@H]3C[C@@](C)(OC)C(O)C(C)O3)C(C)C(=O)OC(CC)[C@@](C)(O)C(O)[C@H](C)C(=O)C(C)C[C@]2(C)O)OC(C)CC1N(C)C.CCCCCCCCCCCCO[S+](=O)([O-])O (some centres undefined) [ERYTHROMYCIN ESTOLATE],> 46 µM
4,CN(C)C(=O)CCSC(SCCC(=O)[O-])c1cccc(/C=C/c2ccc3ccc(Cl)cc3n2)c1 (centres undefined) [MK-571],> 46 µM
5,CCCCCCCCCCCCCCCC(=O)O[C@@H]1[C@@H](O)[C@@H](O)C(C(NC(=O)[C@H]2C[C@@H](CCC)CN2C)C(C)Cl)O[C@@H]1SC (some centres undefined) [Clindamycin palmitate],> 46 µM
6,CC(O)C(=O)O (centres undefined) [Lactic acid],> 46 µM
7,O=C(O)CCCCCCNC1c2ccccc2CCc2ccccc21 [Amineptine],> 46 µM
8,CCCCCCCCCCCCCCCC(=O)OC[C@H](O)[C@H]1OC[C@@H](O)[C@@H]1O [SORBITAN MONOPALMITATE],> 46 µM
9,"CCCCCCCCCc1ccc(O)cc1 [4-Nonylphenol, branched]",> 46 µM
10,CC(C)=CC1C(C(=O)OCc2coc(Cc3ccccc3)c2)C1(C)C (centres undefined) [BIORESMETHRINUM],> 46 µM
11,O=C([O-])c1ccccc1Nc1cc(Cl)ccc1C(=O)[O-] [LOBENZARIT DISODIUM],> 46 µM
12,NC(=O)c1ccc[n+]([C@@H]2O[C@@H](CO[P@@](=O)([O-])O[P@@](=O)(O)OC[C@@H]3O[C@@H](n4cnc5c(N)ncnc54)[C@@H](O)[C@H]3O)[C@H](O)[C@@H]2O)c1 [Nadide],> 46 µM
13,CCCCCCCCCCCCCCCCCCOP(=O)([O-])OC1CC[N+](C)(C)CC1 [Perifosine],> 46 µM
14,CCCCCCCCCCCCCCCC(=O)OCC(COP(=O)(O)OCC[N+](C)(C)C)OC(=O)CCCCCCCCCCCCCCC (centres undefined) [COLFOSCERIL PALMITATE],> 46 µM
15,CC[C@H]1C[C@H]2[C@@H]3CCC/4=C/C(=O)CC[C@@H]4[C@H]3CC[C@]2(C)[C@H]1O [Oxendolone],> 46 µM
16,CCCCN(CCCC)CC[C@H](O)c1cc2c(Cl)cc(Cl)cc2c2cc(C(F)(F)F)ccc12 [Halofantrine hydrochloride],> 46 µM
17,c1ccc(-c2ccc(C(c3ccccc3)n3ccnc3)cc2)cc1 (centres undefined) [BIFONAZOLE],> 46 µM
18,CCCCc1cc2c(=O)c(C(=O)OC)c[nH]c2cc1OCc1ccccc1 [NEQUINATE],> 46 µM
19,Cl.NCC(=O)CCC(=O)O [AMINOLEVULINIC ACID HYDROCHLORIDE],> 46 µM
20,CC(C)CCC[C@@H](C)[C@H]1CC[C@H]2[C@@H]3CC[C@@H]4C[C@H](O)CC[C@]4(C)[C@H]3CC[C@]12C [EPIDIHYDROCHOLESTERIN],> 46 µM

row,SMILES,IC50 of cell viability
1,CCC(C)N1\N=C/N(C1=O)C2=CC=C(C=C2)N3CCN(CC3)C4=CC=C(OCC5COC(C[N]6C=NC=N6)(O5)C7=CC=C(Cl)C=C7Cl)C=C4 (centres undefined) [itraconazole],> 46 µM
2,NNc1nnc(Cc2ccncc2)c2ccccc12 [Picodralazine],> 46 µM
3,Cc1ncc(CSSCc2cnc(C)c(O)c2CO)c(CO)c1O [PYRITHIOXINE],> 46 µM
4,CCCC(C)(COC(N)=O)COC(=O)NC(C)C (centres undefined) [Carisoprodol],> 46 µM
5,CC(C)c1nc(CN(C)C(=O)NC(C(=O)NC(Cc2ccccc2)CC(O)C(Cc2ccccc2)NC(=O)OCc2cncs2)C(C)C)cs1 (centres undefined) [Ritonavir],> 46 µM
6,CNCCCC1C2=C(C=CC=C2)\C=C/C3=C1C=CC=C3 [Protriptyline hydrochloride],> 46 µM
7,COc1ccc(C(c2ccc(OC)cc2)C(Cl)(Cl)Cl)cc1 [Methoxychlor],> 46 µM
8,Cc1ncc(CO)c(C=O)c1O [PYRIDOXAL HYDROCHLORIDE],> 46 µM
9,CC(C)CCCC(C)CCCC(C)CCCCC(C)CCCC(C)CCCC(C)C (centres undefined) [HEXAMETHYLTETRACOSANE],> 46 µM
10,C=C(Nc1ccc(OCC)cc1)Nc1ccc(OCC)cc1 [PHENACAINE HYDROCHLORIDE],> 46 µM
11,CN1CCN(CCCN2c3ccccc3Sc3ccc([S+](=O)([O-])N(C)C)cc32)CC1.C[S+](=O)([O-])O.C[S+](=O)([O-])O [Thioproperazine dimesylate],> 46 µM
12,NCC[S+](=O)([O-])O [TAURINE],> 46 µM
13,C=C(C)C1CC=C(C)CC1 [D-LIMONENE],> 46 µM
14,O=C(O)c1ccc[n+]([O-])c1 [Acide oxiniacique],> 46 µM
15,CN1C2=CC(=O)/C(=N\NC(N)=O)C=C2CC1S(=O)(=O)[O-] (centres undefined) [CARBAZOCHROME SODIUM SULFONATE],> 46 µM
16,CCCOC1=C(C=CC=C1)\C2=N\C(=O)C3=C([NH]N=N3)N2 [Zaprinast],> 46 µM
17,CNC(=O)Oc1cccc2ccccc12 [Carbaryl],> 46 µM
18,CCN(CC)C(=O)[C@H]\1CN(C)[C@@H]\2CC3=C[NH]C4=C3C(=CC=C4)C2=C1 [Lysergic acid diethylamide],> 46 µM
19,O=C\1OC2=C(C=CC=C2)\C=C1 [Coumarin],> 46 µM
20,"CCc1cc(OC)c(C[C@H](C)N)cc1OC [(+)-2,5-Dimethoxy-4-ethylamphetamine]",> 46 µM
